From patent US20130165446A1 (priority 2010, published 2013)

What was measured:
[1] = Weight gain test (in vivo); settings: ob/ob mice; for Weight gain: Example 8 10 mg/kg, rosiglitazone 3 mg/kg, days 1-25
Protocol: (§1) A test compound (the compound of Example 8, n=8) was given orally to 5- to 6-week-old ob/ob mice (C57b1/6ob/ob female mice) at a dose of 10 mg/kg for 1-25 days, then a test compound (the compound of Example 8) was given at 20 mg/kg for 26-33 days. An oral load test of 2 g/kg of glucose was carried out while the mice were fasted, and the blood glucose concentration was measured at −30, 0, 30, 60, 90, 120, and 180 minutes. For comparison, 3 mg/kg of rosiglitazone (n=8) were given for 1-25 days, then 3 mg/kg of rosiglitazone were given for 26-33 days, and the blood glucose concentration was measured in the same manner. Table 7 indicates the results.
The body weight of mice was measured when 10 mg/kg of the same test compound (the compound of Example 8) were given for 1-25 days, and 3 mg/kg of rosiglitazone were given for 1-25 days. Table 8 indicates the results.

[2] = tested on: ob/ob mice (C57b1/6ob/ob female mice); test: Glucose tolerance test (in vivo); settings: for Glucose concentration: fasted ob/ob mice, oral load 2 g/kg glucose, Example 8 oral 10 mg/kg days 1-25 then 20 mg/kg days 26-33, rosiglitazone 3 mg/kg, n=8
Protocol: as §1

[3] = biological target: T1, human recombinant (CHO cell) AT1 receptor (Homo sapiens, UniProt P30556); test: Angiotensin II inhibition test (radioligand binding to AT1 receptor); settings: test compound concentration 10^−9 M; radioactive iodine-labeled angiotensin II, 37° C., sixty minutes; read-out: Inhibition rate (%)
T1 construct: expressed in transfected cells; host or cells: CHO cells
T1 sequence (P30556 1-359): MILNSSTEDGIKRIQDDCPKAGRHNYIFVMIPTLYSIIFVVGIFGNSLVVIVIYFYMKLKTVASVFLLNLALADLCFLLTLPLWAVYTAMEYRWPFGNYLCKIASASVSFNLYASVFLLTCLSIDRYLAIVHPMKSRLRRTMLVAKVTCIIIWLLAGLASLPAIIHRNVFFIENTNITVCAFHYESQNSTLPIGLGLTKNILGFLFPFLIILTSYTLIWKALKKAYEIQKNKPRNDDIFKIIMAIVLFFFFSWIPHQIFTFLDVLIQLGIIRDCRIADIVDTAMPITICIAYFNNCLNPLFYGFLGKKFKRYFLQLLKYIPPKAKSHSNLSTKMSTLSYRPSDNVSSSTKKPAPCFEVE
Protocol: A test of inhibition of angiotensin II to human recombinant (CHO cell) AT1 receptor following a method described in the literature (for example, Regul. Pept., vol. 44 (2), page 131 (1993)) was used to measure inhibitory activity to a test compound.
The ligand used was 10^−9 M of a test compound dissolved in 1% DMSO (dimethylsulfoxide). This was reacted with radioactive iodine-labeled angiotensin II at 37° C. for sixty minutes. Taking the inhibition rate of angiotensin II at 10 μM as nonspecific binding, the specific binding rate was calculated by subtracting this nonspecific portion. Table 6 indicates the results (the inhibition rate at test compound concentration: 10^−9 M)

[4] = biological target: T2, human nuclear receptor PPARγ (Homo sapiens, UniProt P37231); test: PPAR agonist activity measurement test (cell-free FRET cofactor assay), PPARγ; format: biochemical
T2 sequence (P37231 238-503 limits assumed): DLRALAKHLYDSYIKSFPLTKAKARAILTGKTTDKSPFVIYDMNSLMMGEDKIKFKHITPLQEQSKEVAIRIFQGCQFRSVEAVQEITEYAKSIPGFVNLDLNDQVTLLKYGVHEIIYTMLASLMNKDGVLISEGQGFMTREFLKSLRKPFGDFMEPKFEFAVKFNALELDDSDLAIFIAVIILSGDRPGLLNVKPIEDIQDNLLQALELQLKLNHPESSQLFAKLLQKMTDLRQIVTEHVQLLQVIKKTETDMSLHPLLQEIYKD
Protocol: (§2) Agonist activity to the human nuclear receptors PPARα, β, and γ was measured using a biochemical fluorescent resonance energy transfer (FRET) assay system, which is a cell-free assay system, following a method described in the literature (for example, J. Biol. Chem., vol. 281 (8), pages 4920-4930 (2006)).
(§3) Specifically, after an N-terminal biotin-labeled peptide having cofactor peptide SRC1 (amino acid sequence 676-700), which includes the nuclear receptor bonding LXXLL motif region, and the fluorescent fusion proteins of the PPAR ligand binding domain were allowed to stand at room temperature for one hour, the energy transfer between the fluorescence donor and the fluorescence acceptor was measured to detect the test compound dose reaction to the cofactor.
(§4) A Perkin-Elmer Envision Multilabel Plate Reader was used for measurement. During measurement, 320 nm was used as the excitation wavelength, and 615 nm and 665 nm were used as the emission wavelengths. The test compound was dissolved in DMSO (dimethylsulfoxide) to a final solution concentration of 1%.

[5] = biological target: T3, human nuclear receptor PPARβ (Homo sapiens, UniProt Q03181); test: PPAR agonist activity measurement test (cell-free FRET cofactor assay), PPARβ; format: biochemical; settings: result in words
T3 sequence (Q03181 211-439 limits assumed): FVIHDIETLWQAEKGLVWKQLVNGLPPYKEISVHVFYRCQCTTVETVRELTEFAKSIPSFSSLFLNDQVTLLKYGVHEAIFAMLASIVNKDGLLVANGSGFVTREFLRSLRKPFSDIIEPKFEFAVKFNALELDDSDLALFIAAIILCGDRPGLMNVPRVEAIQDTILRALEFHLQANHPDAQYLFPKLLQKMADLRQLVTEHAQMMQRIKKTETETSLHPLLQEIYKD
Protocol: as §2, §3, §4

[6] = biological target: T4, human nuclear receptor PPARα (Homo sapiens, UniProt Q07869); test: PPAR agonist activity measurement test (cell-free FRET cofactor assay), PPARα; format: biochemical; settings: result in words
T4 sequence (Q07869 239-466 limits assumed): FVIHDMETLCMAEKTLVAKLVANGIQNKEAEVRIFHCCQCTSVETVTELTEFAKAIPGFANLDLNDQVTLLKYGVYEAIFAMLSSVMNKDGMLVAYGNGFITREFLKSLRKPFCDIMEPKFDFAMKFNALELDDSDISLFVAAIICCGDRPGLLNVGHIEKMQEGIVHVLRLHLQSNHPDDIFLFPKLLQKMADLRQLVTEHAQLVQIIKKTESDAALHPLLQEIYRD
Protocol: as §2, §3, §4

inhibition at 0.001 µM [3]	activity against PPARγ ([4]; FRET agonist assay, result in words)	EC50 ([4]; FRET, cofactor peptide SRC1, twelve concentrations 50 μM to 0 nM, 1% DMSO, read-out: ED50 (the source's name))	activity against PPARβ [5]	activity against PPARα [6]	SMILES	Weight gain ([1]; day 0)	Weight gain ([1]; day 4)	Weight gain ([1]; day 11)	Weight gain ([1]; day 14)	Weight gain ([1]; day 18)	Weight gain ([1]; day 24)	Glucose concentration ([2]; 0 min)	Glucose concentration ([2]; 30 min)	Glucose concentration ([2]; 60 min)	Glucose concentration ([2]; 120 min)	Glucose concentration ([2]; 180 min)	Glucose concentration ([2]; −30 min)	weight gain compared to the control ([1]; 10 mg/kg days 1-25, result in words)	weight gain compared to rosiglitazone ([1]; 10 mg/kg days 1-25 vs rosiglitazone 3 mg/kg, result in words)	increase in blood glucose concentration compared to the control ([2]; ob/ob mice, oral glucose load 2 g/kg, result in words)
–	–	–	–	–	CN(CCOc1ccc(CC2SC(=O)NC2=O)cc1)c1ccccn1 (stereo not drawn) [Rosiglitazone, rosiglitazone, reference compound]	0 g	1.2 ± 0.1 g	4.5 ± 0.3 g	5.8 ± 0.1 g	7.5 ± 0.2 g	8.9 ± 0.2 g	4.6 ± 0.3 mmol/L	12.5 ± 0.9 mmol/L	4.9 ± 0.3 mmol/L	4.6 ± 0.1 mmol/L	4.6 ± 0.1 mmol/L	4.6 ± 0.3 mmol/L	–	–	–
73%	exhibited activity only against PPARy	114 nM	did not exhibit activity	did not exhibit activity	CCCc1nc(CSc2ccc(Oc3ccc4nc(COc5ccc(CC6SC(=O)NC6=O)cc5)n(C)c4c3)cc2)c(C(=O)OCC)n1Cc1ccc(-c2ccccc2-c2nnn[nH]2)cc1 (stereo not drawn) [Example 8, 4-[4-{2-[4-(2,4-dioxothiazolidin-5-ylmethyl)phenoxymethyl]-1-methyl-1H-benzimidazol-6-yloxy}phenylthiomethyl]-2-propyl-1-[2′-(1H-tetrazol-5-yl)biphenyl-4-ylmethyl]-1H-imidazole-5-carboxylic acid ethyl ester]	0 g	0.8 ± 0.0 g	3.3 ± 0.2 g	4.2 ± 0.3 g	5.9 ± 0.3 g	6.8 ± 0.2 g	6.4 ± 0.6 mmol/L	12.5 ± 0.9 mmol/L	7.3 ± 0.9 mmol/L	5.5 ± 0.6 mmol/L	6.1 ± 0.6 mmol/L	7.6 ± 0.9 mmol/L	nearly comparable weight gain to the control	significantly inhibited weight gain compared to rosiglitazone	significantly inhibited increase in blood glucose concentration compared to the control
32%	–	–	–	–	CCCc1nc(C[S+]([O-])c2ccc(Oc3ccc4nc(COc5ccc(CC6SC(=O)NC6=O)cc5)n(C)c4c3)cc2)c(C(=O)OCC)n1Cc1ccc(-c2ccccc2-c2nnn[nH]2)cc1 (stereo not drawn) [Example 25, 4-[4-{2-[4-(2,4-dioxothiazolidin-5-ylmethyl)phenoxymethyl]-1-methyl-1H-benzimidazol-6-yloxy}phenylsulfinylmethyl]-2-propyl-1-[2′-(1H-tetrazol-5-yl)biphenyl-4-ylmethyl]-1H-imidazole-5-carboxylic acid ethyl ester]	–	–	–	–	–	–	–	–	–	–	–	–	–	–	–
